Measurements: EP3124047A1, “PENTACYCLIC TRITERPENOIDS FOR INJECTION LIPOLYSIS” (Merz Pharma GmbH & Co. KGaA, priority 2015, dated 2017)
Read-outs that look alike come from different tables or passages of the source.

Columns and labels:
mature adipocytes = assay: Alamar blue (resazurin) cell viability assay on mature adipocytes, surrogate for adipocytolytic potential; type: cell-based, human; conditions: for IC50: viability, 48 hrs after compound incubation; for lower IC50 value compared to deoxycholic acid (difference, higher adipocytolytic effect): IC50 ratio versus deoxycholic acid, preadipocytes and adipocytes
Protocol: (§1) The following experimental setup was used for determination of adipocytolytic potential of test compounds with preadipocytes and mature adipocytes: • Primary human preadipocytes (PromoCell) were seeded in Preadipocyte Growth Medium at 45000 cells/cm^2 to allow attachment overnight. Cells were cultured at 37°C and 5% CO2 until postconfluence. Differentiation was started with incubation of cells in Differentiation Medium for 7 days followed by incubation in Nutrition medium for further 14 days. After differentiation process, mature adipocytes were incubated with indicated concentration of indicated triterpenes.
(§2) 6 replicates of each test compound concentration were tested. Each plate included a negative control and a compound interference control (for all concentrations, duplicates).
(§3) Cell viability as surrogate for adipocytolytic potential of compounds were analysed by alamar blue assay. In brief, 20µl of a 0,1mg/ml Resazurin sodium salt (Sigma; R7017-1 G) solution was added to each well 48 hrs after compound incubation. The cells were incubated for 90 min at 37°C and 5% CO2 and the resulting conversion of resazurin to resorufin was measured by a fluorescence plate reader at 590 nm. Vehicle controls were set as 100%. IC50-values were analysed using SigmaBlotV13.

adipocytes [1] = assay: Caspase-Glo 3/7 Assay, apoptosis induction in adipocytes; type: cell-based, human; conditions: for Apoptosis Adipocytes (%): basal apoptosis (vehicle) = 100%
Protocol: as §1
For analysing the potential of compounds to induce apoptosis the Caspase-Glo® 3/7 Assay (Promega) was used as recommended by the supplier. In brief, 100µl Caspase Reagent were added to 100µl cell culture medium and cells were incubated at 37°C and 5% CO2 for 1 hr. Luminescence signal was measured with a SynergyH4 plate reader. Vehicle controls were used to define basal apoptosis as 100%. Table 1 Impact on viability of adipocytes after 48h incubation with indicated compound in increasing concentration

adipocytes [2] = assay: LDH release from adipocytes (indicative for membrane damage); type: cell-based, human; conditions: compared with deoxycholate; far not as high as 4fold
[3] = test system: Primary human preadipocytes; assay: Alamar blue (resazurin) cell viability assay on preadipocytes; type: cell-based; conditions: for viability at 10 µM / viability at 30 µM / viability at 50 µM / viability at 100 µM / viability at 300 µM: read-out: Viability Preadipocytes (%); for IC50: viability, 48 hrs after compound incubation, read-out: IC50 [µM] Pre-ad ipocytes
Protocol: as §1, §2, §3

[4] = 50 µM, 48h incubation, vehicle controls = 100%
[5] = Homo sapiens, Adipocyte, 48 h, 10 µM, 48h incubation, vehicle controls = 100%, read-out: Viability Adipocytes (%)
[6] = Homo sapiens, Adipocyte, 48 h, 30 µM, 48h incubation, vehicle controls = 100%, read-out: Viability Adipocytes (%)
[7] = Homo sapiens, Adipocyte, 48 h, 50 µM, 48h incubation, vehicle controls = 100%, read-out: Viability Adipocytes (%)
[8] = Homo sapiens, Adipocyte, 48 h, 100 µM, 48h incubation, vehicle controls = 100%, read-out: Viability Adipocytes (%)
[9] = Homo sapiens, Adipocyte, 48 h, 300 µM, 48h incubation, vehicle controls = 100%, read-out: Viability Adipocytes (%)
[10] = 10 µM, 48h incubation, vehicle controls = 100%
[11] = 30 µM, 48h incubation, vehicle controls = 100%
[12] = 100 µM, 48h incubation, vehicle controls = 100%
[13] = 300 µM, 48h incubation, vehicle controls = 100%
[14] = Homo sapiens, Adipocyte, 48 h, read-out: Viability Adipocytes (%), 10 µM, 48h incubation, vehicle controls = 100%
[15] = Homo sapiens, Adipocyte, 48 h, read-out: Viability Adipocytes (%), 30 µM, 48h incubation, vehicle controls = 100%
[16] = Homo sapiens, Adipocyte, 48 h, read-out: Viability Adipocytes (%), 50 µM, 48h incubation, vehicle controls = 100%
[17] = Homo sapiens, Adipocyte, 48 h, read-out: Viability Adipocytes (%), 100 µM, 48h incubation, vehicle controls = 100%
[18] = Homo sapiens, Adipocyte, 48 h, read-out: Viability Adipocytes (%), 300 µM, 48h incubation, vehicle controls = 100%

With `CC1(C)CC[C@]2(C(=O)O)CC[C@]3(C)C(=CC[C@@H]4[C@@]5(C)C[C@@H](O)[C@H](O)C(C)(C)[C@@H]5CC[C@]43C)[C@@H]2C1` [Maslinic acid, (4aS,6aR,6aS,6bR,8aR,10R,11R,12aR,14bS)-10,11-dihydroxy-2,2,6a,6b,9,9,12a-heptamethyl-1,3,4,5,6,6a,7,8,8a,10,11,12,13,14b-tetradecahydropicene-4a-carboxylic acid] the “Viability Adipocytes (%)” value (mature adipocytes; [4]) was 47.08%, the viability at 10 µM (mature adipocytes; [5]) was 96.9% and the viability at 30 µM (mature adipocytes; [6]) was 76.7%. The viability at 50 µM (mature adipocytes; [7]) was about 50%, the viability at 100 µM (mature adipocytes; [8]) was 4.86% and the viability at 300 µM (mature adipocytes; [9]) was 0.3%. The IC50 (mature adipocytes; Homo sapiens, Adipocyte) was 53.4 µM, the “Apoptosis Adipocytes (%)” value (adipocytes [1]; 30 µM, 6 hrs) was 97.17% and the “Apoptosis Adipocytes (%)” value (adipocytes [1]; 30 µM, 48hrs) was 121.70%. The “Apoptosis Adipocytes (%)” value (adipocytes [1]; 50 µM, 6 hrs) was 126.43%, the “Apoptosis Adipocytes (%)” value (adipocytes [1]; 50 µM, 48hrs) was 116.95% and the “max. apoptosis induction over basal levels” value (adipocytes [1]; 100 µM after 6 hrs) was 6.6 fold. The “Apoptosis Adipocytes (%)” value (adipocytes [1]; 100 µM, 6 hrs) was 662.48%, the “Apoptosis Adipocytes (%)” value (adipocytes [1]; 100 µM, 48hrs) was 304.15% and the “Apoptosis Adipocytes (%)” value (adipocytes [1]; 200 µM, 48hrs) was 378.25%. The “Apoptosis Adipocytes (%)” value (adipocytes [1]; 300 µM, 6 hrs) was 398.94%, the “Apoptosis Adipocytes (%)” value (adipocytes [1]; 300 µM, 48hrs) was 238.76% and the pro-apoptotic capacity (adipocytes [1]; summary of the apoptosis data) was “clear pro-apoptotic capacity”. The “LDH release (indicative for membrane damage) from the adipocytes” value (adipocytes [2]) was “higher”, the viability at 10 µM [3, 10] was 96.4% and the viability at 30 µM [3, 11] was 76%. The viability at 50 µM [3, 4] was 45.6%, the viability at 100 µM [3, 12] was 2.42% and the viability at 300 µM [3, 13] was 0%. The IC50 [3] was 54.3 µM.
Work on `C=C(C)[C@@H]1CC[C@]2(C(=O)O)CC[C@]3(C)[C@H](CC[C@@H]4[C@@]5(C)CC[C@H](O)C(C)(C)[C@@H]5CC[C@]43C)[C@@H]12` [Betulinic acid, (3β)-3-hydroxy-lup-20(29)-en-28-oic acid] yielded a viability at 10 µM (mature adipocytes; [5]) of 104%, a viability at 30 µM (mature adipocytes; [6]) of 85.6% and a viability at 50 µM (mature adipocytes; [7]) of 70.7%. For the same compound, the viability at 100 µM (mature adipocytes; [8]) was 32.3%, the viability at 300 µM (mature adipocytes; [9]) was 4.9% and the IC50 (mature adipocytes; Homo sapiens, Adipocyte) was 72 µM. For the same compound, the viability at 10 µM [3, 10] was 81.8%, the viability at 30 µM [3, 11] was 48.5% and the viability at 50 µM [3, 4] was 45.1%. For the same compound, the viability at 100 µM [3, 12] was 17.5%, the viability at 300 µM [3, 13] was 0.45% and the IC50 [3] was 35.5 µM.
In the case of `C[C@H](CCC(=O)O)[C@H]1CC[C@H]2[C@@H]3CC[C@@H]4C[C@H](O)CC[C@]4(C)[C@H]3C[C@H](O)[C@]12C` [Deoxycholic acid, reference compound], the viability at 10 µM (mature adipocytes; [5]) is reported as 107%, the viability at 50 µM (mature adipocytes; [7]) is reported as 95.6% and the viability at 100 µM (mature adipocytes; [8]) is reported as 94.3%. The viability at 200 µM (mature adipocytes; Homo sapiens, Adipocyte, 48 h, 200 µM, concentration required for 50%-decrease in viability) was about 50%, the viability at 300 µM (mature adipocytes; [9]) was 22.1% and the IC50 (mature adipocytes; Homo sapiens, Adipocyte) was 244 µM. It also gave a viability at 10 µM [3, 10] of 96.2%, a viability at 30 µM [3, 11] of 92.8% and a viability at 50 µM [3, 4] of 95.6%. It also gave a viability at 100 µM [3, 12] of 98%, a viability at 300 µM [3, 13] of 26.1% and an IC50 [3] of 232 µM.
`C[C@H]1[C@H](C)CC[C@]2(C(=O)O)CC[C@]3(C)C(=CC[C@@H]4[C@@]5(C)C[C@@H](O)[C@H](O)C(C)(C)[C@@H]5CC[C@]43C)[C@H]12` [Corosolic acid, (1S,2R,4aS,6aR,6aS,6bR,8aR,10R, 11R,12aR,14bS)-10,11-Dihydroxy-1,2,6a,6b,9,9,12a-heptamethyl-2,3,4,5,6,6a,7,8,8a,10,11,12,13,14b-tetradecahydro-1H-picene-4a-carboxylic acid] gave a viability at 10 µM (mature adipocytes; [14]) of 92.9%, a viability at 30 µM (mature adipocytes; [15]) of 60.5% and a viability at 50 µM (mature adipocytes; [16]) of 45.3%. It also gave a viability at 100 µM (mature adipocytes; [17]) of 6.06%, a viability at 300 µM (mature adipocytes; [18]) of 0.47% and an IC50 (mature adipocytes; Homo sapiens, Adipocyte) of 45 µM. It also gave a viability at 10 µM ([3]; 48 h) of 94.7%, a viability at 30 µM ([3]; 48 h) of 68.6% and a viability at 50 µM ([3]; 48 h) of 20.4%. It also gave a viability at 100 µM ([3]; 48 h) of 0%, a viability at 300 µM ([3]; 48 h) of 0% and an IC50 [3] of 43.1 µM.
For `C[C@H]1[C@H](C)CC[C@]2(C(=O)O)CC[C@]3(C)C(=CC[C@@H]4[C@@]5(C)CC[C@H](O)C(C)(C)[C@@H]5CC[C@]43C)[C@H]12` [Ursolic acid, (1S,2R,4aS,6aR,6aS,6bR,8aR,10S,12aR,14bS)-10-hydroxy-1,2,6a,6b,9,9,12a-heptamethyl-2,3,4,5,6,6a,7,8,8a,10,11,12,13,14b-tetradecahydro-1H-picene-4a-carboxylic acid], the viability at 10 µM (mature adipocytes; [5]) was 92.4%, the viability at 30 µM (mature adipocytes; [6]) was 28.9% and the viability at 50 µM (mature adipocytes; [7]) was 14.9%. It also gave a viability at 100 µM (mature adipocytes; [8]) of 13.4%, a viability at 300 µM (mature adipocytes; [9]) of 10.3% and an IC50 (mature adipocytes; Homo sapiens, Adipocyte) of 24.4 µM. The “lower IC50 value compared to deoxycholic acid (difference, higher adipocytolytic effect)” value (mature adipocytes) was “about 10 fold”, the viability at 10 µM [3, 10] was 74.8% and the viability at 30 µM [3, 11] was 12.7%. The viability at 50 µM [3, 4] was 0.32%, the viability at 100 µM [3, 12] was 0% and the viability at 300 µM [3, 13] was 0%. For the same compound, the IC50 [3] was 20.1 µM.
For `CC1(C)CC[C@]2(C(=O)O)CC[C@]3(C)C(=CC[C@@H]4[C@@]5(C)CC[C@H](O)C(C)(C)[C@@H]5CC[C@]43C)[C@@H]2C1` [Oleanolic acid, (4aS,6aR,6aS,6bR,8aR,10S,12aR,14bS)-10-hydroxy-2,2,6a,6b,9,9,12a-heptamethyl-1,3,4,5,6,6a,7,8,8a,10,11,12,13,14b-tetradecahydropicene-4a-carboxylic acid], the viability at 10 µM (mature adipocytes; [14]) was 114%, the viability at 30 µM (mature adipocytes; [15]) was 110% and the viability at 50 µM (mature adipocytes; [16]) was 117%. The viability at 100 µM (mature adipocytes; [17]) was 32.4%, the viability at 300 µM (mature adipocytes; [18]) was 15.8% and the IC50 (mature adipocytes; Homo sapiens, Adipocyte) was 92.8 µM. The “lower IC50 value compared to deoxycholic acid (difference, higher adipocytolytic effect)” value (mature adipocytes) was 2.5 fold, the viability at 30 µM ([3]; 48 h) was 79.1% and the viability at 50 µM ([3]; 48 h) was 83.4%. It also gave a viability at 100 µM ([3]; 48 h) of 53.3%, a viability at 300 µM ([3]; 48 h) of 0% and an IC50 [3] of 125 µM.
